Data as given in US20220133753A1, “COMPOSITIONS AND METHODS USEFUL FOR TREATING DISEASES CHARACTERIZED BY INSUFFICIENT PANTOTHENATE KINASE ACTIVITY” (Comet Therapeutics, Inc., priority 2016, published 2022).
“Also recorded” adds a separate entry of the source.

Key:
[1] = Mice CoA intravenous injection study; type: in vivo, mouse; details: i.v.
Description: Sample preparation for mass spectrometry and instrumental parameters: Samples were briefly washed with ice-cold PBS solution. Samples were then sonicated thoroughly in 100 μl ice-cold milliQ (MQ) water containing 50 mM Tris(2-carboxyethyl)phosphine hydrochloride. Subsequently 100 ul saturated ammonium sulfate was added to each sample and centrifuged for 20 min at 10° C., 16100 rcf to collect supernatant. To 150 μl of supernatant, 15 ul of ammonium hydroxide (12.5%) was added and 20 μl was injected for LC-MS (liquid chromatography-mass spectrometry) analysis. For mouse plasma analysis, 50 ul of MQ water containing 50 mM Tris (2-carboxyethyl)phosphine hydrochloride was added to 50 ul of plasma and processed further as mentioned above. Appropriate dilution series of standard CoA, PPanSH and PPanSH(D4) was processed similarly before analysis. […] The flow was maintained at 1 ml/min with optimized mobile phase gradient of MQ water (A), 200 mM NH4Ac in 95/5 MQ water/acetonitrile adjusted to pH 4.5 with acetic acid (B), and acetonitrile (C). The separated analytes were detected with positive mode mass spectrometry under unit resolution. […] The absolute concentration was finally calculated using linear regression analysis of respective standard compounds, except CoA(D4) which was estimated indirectly using CoA standards. […]

[2] = Parallel Artificial Membrane Permeability Assay (PAMPA); type: in vitro ADME; details: 5 h incubation, room temperature, phosphate-buffered saline
Description: FIG. 13E is a depiction of a Parallel Artificial Membrane Permeability Assay (PAMPA). Experiments were performed according to the manufacturer's instructions. In this assay, a two-well system is separated by an artificial lipid-oil-lipid membrane (shown in grey). To the lower (donor) compartment, a compound dissolved in buffer is added, the upper (acceptor) compartment contains only buffer. After 5 hours of incubation, concentration of compound is measured in both wells to assess its propensity to diffuse over the artificial membrane. The permeability was calculated according to the manufacturer's instruction (formulas are depicted to the right). Compounds that are below the assay threshold are predicted to be unable to pass membranes passively, whereas compounds above the threshold are able to pass membranes passively. Ceq=Equilibrium Concentration, CD=Concentration in donor well, VD=Volume of donor well (0.3 ml), CA=Concentration in acceptor well, VA=Volume of acceptor well (0.2 ml), P=Permeability, S=Membrane area (0.3 cm2), t=Incubation time (18000 s).
PAMPA assay procedure: Parallel Artificial Membrane Permeability Assay (PAMPA) was performed and processed according to manufacturer's instructions (BD Gentest Pre-coated PAMPA plates). Briefly, two superimposed wells are separated by an artificial lipid-oil-lipid membrane. The compound of interest (PPanSH, CoA, caffeine, amiloride) was added to the bottom well in phosphate-buffered saline, whereas the top well was filled with phosphate-buffered saline alone. After 5 h of incubation at room temperature, concentrations of the different compounds were measured using UV-VIS absorption spectroscopy (BMG Labtech SPECTROstar Omega) along with calibration curves for all compounds. The permeability efficiency was further calculated according to manufacturer's instructions. For caffeine and amiloride, four replicates were performed; for PPanSH and CoA twelve replicates were performed. Caffeine and amiloride were obtained from Sigma.

For `CC(C)(COP(=O)(O)OP(=O)(O)OC[C@H]1O[C@@H](n2cnc3c(N)ncnc32)[C@H](O)[C@@H]1OP(=O)(O)O)[C@@H](O)C(=O)NCCC(=O)NCCS` [CoA, Coenzyme A], the “conversion of injected CoA in plasma” value ([1]; 30 minutes, HPLC) was “rapidly converted to 4′-phosphopantetheine”, the “4′-phosphopantetheine in plasma after CoA injection” value ([1]; 6 hrs, mass spectrometry) was “elevated levels of PpanSH; also recorded: still present” and the “membrane permeation (PAMPA)” value [2] was “poorly permeating molecule and not”.
